# Test results reported in patent publication US20040138207A1, “Antitumor agents” (priority 2001, published 2004).
# Where “and” joins values, the source holds several entries; their conditions need not be identical. Identical values can stand only once. Like-named read-outs stand apart in the source and are kept apart here.
# Key:
# [1] = test system: human large bowel cancer cell COLO320DM; assay: Example 3 comparison with other gastrin/CCK-B antagonist in COLO320DM bearing mice; type: in vivo; conditions: 10 days
# Procedure: In human large bowel cancer cell COLO320DM bearing mice, the administration of compound A was started when the tumor volume reached to about 120 mm^3 in a similar manner to that described in the Example 2. Its dose per day was 60 or 200 mg/kg, and the administration period was 10 days. As a comparative compound, (3RS)-N-(1-(1-tert-butylcarbonylmethyl)-2,3-dihydro-2-oxo-5-(2-pyridyl)-1H-1,4-benzodiazepin-3-yl)-N′-(3-(dimethylamino)phenyl)urea whose data on inhibitory effect of pentagastrin-stimulus gastric acid secretion in a dog are disclosed as “compound of Example 38” in the aforementioned WO 93/16999 was administered in the same manner at a dose of 200 mg/kg.
# The tumor growth inhibition ratio was calculated in a similar manner to that described in Example 2. The tumor growth inhibition ratio when 60 or 200 mg/kg of the compound A was administered was 20 or 27%, respectively.
# [2] = test system: human large bowel cancer; conditions: without exogenous gastrin stimulation, cited from earlier work
# [3] = test system: human pancreatic cancer cell line BxPC-3; assay: Example 4 comparison with gemcitabine, tumor growth in BxPC-3 bearing nude mice; type: in vivo
# Procedure: (§1) A total of 3×10^6 cells of a human pancreatic cancer cell line BxPC-3 was injected into the dorsal side skin of female Balb/c nude mice (6 weeks of age). When the tumor volume reached to about 110 mm^3, 60, 200 or 600 mg/kg per day of the compound A was orally administered in a similar manner to that described in Example 2, every day by dividing the daily dose into two doses per day (n=5). Also, 0.5% methylcellulose solution was administered in the same schedule to the control group. The administration period was 14 days.
# (§2) As a comparative compound, a known pancreatic cancer therapeutic agent Gemcitabine (GEM) was used in the same test. GEM was intravenously administered at a dose of 60, 120 or 240 mg/kg per day, once in three days. Physiological saline was administered to the control group in the same schedule.
# The tumor growth inhibition ratio was calculated by same calculation formula in Example 2.
# [4] = Example 4 side effect parameters in BxPC-3 bearing nude mice; type: in vivo
# Procedure: as §1, §2
# The tumor growth inhibition ratio in the compound A-treated group is shown in Table 3, and that in the GEM-treated group in Table 4, together with various parameters which indicate the degree of side effects.
# [5] = test system: cancer cell proliferation; conditions: group of no gastrin stimulation; cited from earlier work
# [6] = test system: human pancreatic cancer cell BxPC-3; assay: Example 2 antitumor action in BxPC-3 cancer-bearing mice (established tumor); type: in vivo; conditions: 21 days, start at about 120 mm^3
# Procedure: (§3) In human pancreatic cancer cell BxPC-3 bearing mice, administration of the compound A was started when the tumor volume reached to about 120 mm^3 in a similar manner to that described in the test example 1. Its dose per day was 200 or 600 mg/kg, and the administration period was 21 days.
# The tumor growth inhibition ratio was calculated by the following calculation formula.
# Tumor growth inhibition ratio (%)={[(tumor volume of control group on the administration-finished day−tumor volume of control group before commencement of the administration)−(tumor volume of compound A-treated group on the administration-finished day−tumor volume of compound A-treated group before commencement of the administration)]/(tumor volume of control group on the administration-finished day−tumor volume of control group before commencement of the administration)}×100
# [7] = test system: human pancreatic cancer cell line PANC-1; assay: Example 1 antitumor action in PANC-1 bearing Balb/c nude mice; type: in vivo; conditions: PANC-1, 200 mg/kg per day p.o., 49 days
# Procedure: (§4) Three to 10×10^6 cells of human pancreatic cancer cell lines (BxPC-3 and PANC-1), human large bowel cancer cell lines (HT29 and COLO320DM) and a human gastric cancer cell line (MKN28) were injected into the dorsal side skin of female Balb/c nude mice. Starting on the next day of the subcutaneous injection of cancer cells, 200 mg/kg per day of the compound A was suspended in 0.5% methylcellulose and orally administered every day by dividing the daily dose into two doses per day. Also, 0.5% methylcellulose solution was administered in the same schedule to the control group. Using calipers, the tumor diameter was measured periodically until the next day of the final administration. The tumor volume and tumor growth inhibition ratio were calculated by the following calculation formulae.
# (§5) Tumor volume (mm^3)=½×breadth (mm)^2×length (mm)
# (§6) Tumor growth inhibition ratio (%)=[(tumor volume of control group—tumor volume of compound A administration group)/tumor volume of control group]×100
# [8] = test system: human gastric cancer cell line MKN28; assay: Example 1 antitumor action in MKN28 bearing Balb/c nude mice; type: in vivo; conditions: MKN28, 200 mg/kg per day p.o., 20 days
# Procedure: as §4, §5, §6
# [9] = test system: human large bowel cancer cell line COLO320DM; assay: Example 1 antitumor action in COLO320DM bearing Balb/c nude mice; type: in vivo; conditions: 200 mg/kg per day p.o., 21 days
# Procedure: as §4, §5, §6
# [10] = test system: gastrin-stimulated gastric acid secretion; conditions: dog, 0.01 mg/kg oral administration; cited from earlier work
# [11] = test system: human large bowel cancer cell line HT29; assay: Example 1 antitumor action in HT29 bearing Balb/c nude mice; type: in vivo; conditions: HT29, 200 mg/kg per day p.o., 27 days
# Procedure: as §4, §5, §6
# [12] = test system: human pancreatic cancer cell line BxPC-3; assay: Example 1 antitumor action in BxPC-3 bearing Balb/c nude mice; type: in vivo; conditions: BxPC-3, 200 mg/kg per day p.o. from day after injection, 23 days
# Procedure: as §4, §5, §6
# [13] = Example 2 toxicity (body weight, side effects) in BxPC-3 cancer-bearing mice; type: in vivo
# Procedure: as §3
# [14] = test system: large bowel cancer; conditions: large bowel cancer-bearing mice; cited from earlier work
# [15] = daily dose of 600 mg/kg continuously for 21 days
structure (smiles),measurement,setting,value
"CN(C)c1cccc(NC(=O)NC2N=C(c3ccccn3)c3ccccc3N(CC(=O)C(C)(C)C)C2=O)c1 (racemic) [comparative compound, (3RS)-N-(1-(1-tert-butylcarbonylmethyl)-2,3-dihydro-2-oxo-5-(2-pyridyl)-1H-1,4-benzodiazepin-3-yl)-N′-(3-(dimethylamino)phenyl)urea, reference compound]",tumor growth inhibitory action,[1]; 200 mg/kg,did not show
C[C@](Cc1c[nH]c2ccccc12)(NC(=O)OC1[C@H]2C[C@@H]3C[C@@H](C[C@H]1C3)C2)C(=O)NC[C@H](NC(=O)CCC(=O)O)c1ccccc1 (stereo partly drawn) [CI-988],growth inhibitory action,[2]; 25 mg/kg oral,showed a growth inhibitory action
same,growth inhibitory action,[2]; 50 mg/kg oral,not found
"Nc1ccn([C@@H]2O[C@H](CO)[C@@H](O)C2(F)F)c(=O)n1 [GEM, Gemcitabine, reference compound]",Tumor growth inhibition ratio,[3]; 60 mg/kg i.v. once in three days,22.2% and 22.2 ± 26.7%
same,Tumor growth inhibition ratio,[3]; 120 mg/kg i.v. once in three days,80.2% and 80.2 ± 20.1%
same,dead cases,"[4]; 240 mg/kg i.v. once in three days, n=5",3/5 dead cases
same,MTD at 14 days,"[4]; female, Balb/c nude, mouse, in vivo, iv, i.v. once in three days, BxPC-3 bearing mice, read-out: MTD (maximum tolerated dose)",120 mg/kg
Cc1cccc(NC(=O)N[C@@H]2N=C(c3ccccc3)c3ccccc3N(C)C2=O)c1 [L-365260],inhibition of cancer cell proliferation,[5],not found
"CNc1cccc(NC(=O)N[C@@H]2N=C(c3ccccn3)c3ccccc3N(CC(=O)C(C)(C)C)C2=O)c1 [compound A, (3R)-N-(1-(1-tert-butylcarbonylmethyl)-2,3-dihydro-2-oxo-5-(2-pyridyl)-1H-1,4-benzodiazepin-3-yl)-N′-(3-(methylamino)phenyl)urea]",Tumor growth inhibition ratio,[6]; 200 mg/kg per day,48%
same,Tumor growth inhibition ratio,[6]; 600 mg/kg per day,79%
same,Tumor growth inhibition ratio,[7],52%
same,Tumor growth inhibition ratio,[8],31%
same,Tumor growth inhibition ratio,[9],47%
same,Tumor growth inhibition ratio,[1]; 60 mg/kg per day,20%
same,Tumor growth inhibition ratio,[1]; 200 mg/kg per day,27%
same,inhibition of gastrin-stimulated gastric acid secretion,[10],50%
same,Tumor growth inhibition ratio,"[3]; 60 mg/kg p.o. per day, 14 days",19.3 ± 23.6%
same,Tumor growth inhibition ratio,"[3]; 200 mg/kg p.o. per day, 14 days",25.1%
same,Tumor growth inhibition ratio,"[3]; 200 mg/kg p.o. per day, 14 days, listed as Compound A",25.1 ± 21.1%
same,Tumor growth inhibition ratio,"[3]; 600 mg/kg p.o. per day, 14 days",78.2 ± 28.3%
same,Tumor growth inhibition ratio,[11],36%
same,Tumor growth inhibition ratio,[12],65%
same,Body weight,"[13]; 200 mg/kg dose group, on the 21st day",23.8 ± 0.5 g
same,Body weight,"[13]; 200 mg/kg dose group, the day before commencement of administration",22.1 ± 0.5 g
same,Body weight,"[13]; 600 mg/kg dose group, on the 21st day",23.3 ± 0.7 g
same,Body weight,"[13]; 600 mg/kg dose group, the day before commencement of administration",21.4 ± 0.6 g
same,influence on the mouse body weight,[13]; [15],did not exert influence
same,side effects,[13]; [15],not observed
CCCN(CCC)C(=O)C(CCC(=O)O)NC(=O)c1ccccc1 (stereo not drawn) [proglumide],antitumor effect,[14],appropriate antitumor effect
same,mortality rate of mice,[14],reduced
